This is an account of results in patent US11639350B2, “Heteroaryldihydropyrimidine derivatives and methods of treating hepatitis B infections” (Janssen Pharmaceutica NV, priority 2018, dated 2023).

The test system of data set [1] is HBV. Briefly: HBV inhibitory activity: HBV DNA in the culture medium of HepG2.2.15 cells by q-PCR. The format is cell-based. The protocol: (§1) HBV replication inhibition by the compounds of this invention as well as cytotoxicity determination was determined in cells infected or transfected with HBV, or cells with stably integrated HBV, such as HepG2.2.15 cells (Sells et al. 1987). The method used herein is as follows.
(§2) The HepG2.2.15 cells were seeded into 96-well plate in 2% FBS (Fetal bovine serum) culture medium at the density of 40,000 cells/well and 5,000 cells/well for HBV inhibitory activity and cytotoxicity determination, respectively. After seeding, the cell plates were incubated at 37° C., 5% CO2 overnight. The next day, medium containing compounds were added to treat the cells for 6 days with medium refreshed once in the middle of the treatment. Eight dose points with 3 folds dilution of each compound were adopted and the highest concentration of the compounds was 10 μM and 100 μM for HBV inhibitory activity and cytotoxicity determination, respectively.
The HBV DAN change in the cell culture medium induced by the compounds was measured by q-PCR (quantitative polymerase chain reaction) method. The HBV DNA in the culture medium was extracted using QIAamp 96 DNA Blood Kit according to the manual and then quantified by q-PCR using the primers and probe in the table below: […]
(§3) EC50 and CC50 values are calculated by the GraphPad Prism software and are averages where multiple measurements were made. EC50 values for the other exemplified compounds were either not measured or higher than 1 μM.

Data set [2] is described as follows: Cytotoxicity determination in HepG2.2.15 cells (CCK-8). The format is cell-based. The note with it: human, 6 days of compound treatment, CCK-8, highest concentration 100 μM. The protocol: as §1, §2
After 6 days of compounds treatment, 20 μl CCK-8 (Cell Counting Kit-8 (Tianjin Biolite company)) reagents were added to each well of cytotoxicity assay plates, the plate was incubated at 37° C., 5% CO2 for 2.5 hours and the absorbance at 450 nm wavelength was measured, at the same time the absorbance at 630 nm wavelength was read as reference.
as §3

[3] abbreviates: Hepatitis B virus, HepG2.2.15, 144 h, HepG2.2.15 cells, 6 days of compound treatment, HBV DNA in culture medium by q-PCR, highest concentration 10 μM, read-out: EC50.

Like-named read-outs stand apart in the source and are kept apart here. Some results are limits rather than exact numbers.

Usually EC50 stands for the concentration needed to bring the measured effect to its halfway point. Usually CC50 stands for the concentration giving 50% cytotoxicity.

For the compound `COC(=O)C1=C(C2CN(S(=O)(=O)c3ccccc3)C2)NC(c2nccs2)=NC1c1ccc(F)cc1Cl` (centres unmarked) [Compound 130, 6-(1-Benzenesulfonyl-azetidin-3-yl)-4-(2-chloro-4-fluoro-phenyl)-2-thiazol-2-yl-1,4-dihydro-pyrimidine-5-carboxylic acid methyl ester], in data set [1] (setting [3]), the EC50 was 550 nM. The CC50 at 6 days in data set [2] was more than 10000 nM.
In the same order, the values of `COC(=O)C1=C(C2CCN(S(=O)(=O)[C@H]3CC[C@H](CC(=O)O)CC3)CC2)NC(c2nccs2)=NC1c1ccc(F)cc1Cl` (relative stereo) [Compound 476A, (trans)-2-(4-((4-(6-(2-Chloro-4-fluorophenyl)-5-(methoxycarbonyl)-2-(thiazol-2-yl)-3,6-dihydropyrimidin-4-yl)piperidin-1-yl)sulfonyl)cyclohexyl)acetic Acid] are 14 nM and 30400 nM.
In the same order, the values of `COC(=O)C1=C(C2CCOCC2)NC(c2nccs2)=NC1c1ccc(F)cc1Cl` (single isomer, unassigned) [Compound 51B, Methyl 4-(2-chloro-4-fluorophenyl)-6-(tetrahydro-2H-pyran-4-yl)-2-(thiazol-2-yl)-1,4-dihydropyrimidine-5-carboxylate] are 467 nM and more than 100000 nM.
The like results for `COC(=O)C1=C(C2CCN(S(=O)(=O)C[C@H]3CC[C@H](C(=O)O)CC3)CC2)NC(c2nccs2)=NC1c1ccc(F)c(F)c1Cl` (stereo partly drawn) [Compound 425, trans-4-(((4-(6-(2-chloro-3,4-difluorophenyl)-5-(methoxycarbonyl)-2-(thiazol-2-yl)-3,6-dihydropyrimidin-4-yl)piperidinyl)sulfonyl)methyl)cyclohexane-1-carboxylic Acid] were, in that order, 6 nM and 13300 nM.
As to `COC(=O)C1=C([C@H]2CC[C@@H](S(=O)(=O)N(C)C)CC2)NC(c2nccs2)=NC1c1ccc(F)c(F)c1Cl` (single isomer, unassigned) [Compound 233B, (cis)-Methyl 4-(2-chloro-3,4-difluorophenyl)-6-(4-(N,N-dimethylsulfamoyl)cyclohexyl)-2-(thiazol-2-yl)-1,4-dihydropyrimidine-5-carboxylate], in data set [1] (setting [3]), the EC50 came to 56 nM. Also, the CC50 at 6 days in data set [2] is 6300 nM.
The like results for `CNS(=O)(=O)[C@H]1CC[C@@H](C2=C(C(=O)OC)C(c3cccc(F)c3Cl)N=C(c3nccs3)N2)CC1` (single isomer, unassigned) [Compound 259C, (cis)-methyl 4-(2-chloro-3-fluorophenyl)-6-(4-(N-methylsulfamoyl)cyclohexyl)-2-(thiazol-2-yl)-1,4-dihydropyrimidine-5-carboxylate] were, in that order, 36 nM and 12700 nM.
In the same order, the values of `CCOC(=O)C1=C(C2CCN(S(C)(=O)=O)CC2)NC(c2nccs2)=NC1c1cccc(F)c1Cl` (centres unmarked) [Compound 96B, Ethyl 4-(2-chloro-3-fluorophenyl)-6-(1-(methylsulfonyl)piperidin-4-yl)-2-(thiazol-2-yl)-1,4-dihydropyrimidine-5-carboxylate] are 130 nM and 21200 nM.
The like results for `COC(=O)C1=C(C2CCCC3(C2)OCCO3)NC(c2nccs2)=NC1c1ccc(F)cc1Cl` (centres unmarked) [Compound 218, Methyl 4-(2-chloro-4-fluorophenyl)-6-(1,4-dioxaspiro[4.5]decan-7-yl)-2-(thiazol-2-yl)-1,4-dihydropyrimidine-5-carboxylate] were, in that order, 148 nM and 29700 nM.
As to `COCCNS(=O)(=O)[C@H]1CC[C@H](C2=C(C(=O)OC)C(c3ccc(F)c(F)c3Cl)N=C(c3nccs3)N2)CC1` (single isomer, unassigned) [Compound 359D, (trans)-methyl 4-(2-chloro-3,4-difluorophenyl)-6-(4-(N-(2-methoxyethyl)sulfamoyl)cyclohexyl)-2-(thiazol-2-yl)-1,4-dihydropyrimidine-5-carboxylate], the EC50 in data set [1] (setting [3]) is 5 nM. The CC50 at 6 days in data set [2] is 12000 nM.
The like results for `CCOC(=O)C1=C(C2CCN(S(=O)(=O)c3cnn(CCCCC(=O)O)c3)CC2)NC(c2nccs2)=NC1c1ccc(F)c(F)c1Cl` (centres unmarked) [Compound 463, 5-(4-((4-(6-(2-Chloro-3,4-difluorophenyl)-5-(ethoxycarbonyl)-2-(thiazol-2-yl)-3,6-dihydropyrimidin-4-yl)piperidin-1-yl)sulfonyl)-1H-pyrazol-1-yl)pentanoic acid] were, in that order, 31 nM and 12200 nM.
In the same order, the values of `CCOC(=O)C1=C([C@H]2CC[C@H](C(=O)O)CC2)NC(c2nccs2)=NC1c1ccc(F)c(F)c1Cl` (single isomer, unassigned) [Compound 345A, (trans)-(R*)-4-(6-(2-Chloro-3,4-difluorophenyl)-5-(ethoxycarbonyl)-2-(thiazol-2-yl)-3,6-dihydropyrimidin-4-yl)cyclohexanecarboxylic Acid] are 44 nM and 34100 nM.
In the same order, the values of `COC(=O)C1=C([C@H]2CC[C@H](S(=O)(=O)NCCC(C)(C)O)CC2)NC(c2nccs2)=NC1c1ccc(F)c(F)c1Cl` (stereo partly drawn) [Compound 358B, (trans)-Methyl 4-(2-chloro-3,4-difluorophenyl)-6-(4-(N-(3-hydroxy-3-methylbutyl)sulfamoyl)cyclohexyl)-2-(thiazol-2-yl)-1,4-dihydropyrimidine-5-carboxylate] are 59 nM and 12500 nM.
Consider `COC(=O)C1=C(C2CCN(S(C)(=O)=O)CC2)NC(c2nccs2)=NC1c1ccc(F)c(F)c1Cl` (single isomer, unassigned) [Compound 59B, Methyl 4-(2-chloro-3,4-difluorophenyl)-6-(1-(methylsulfonyl)-piperidin-4-yl)-2-(thiazol-2-yl)-1,4-dihydropyrimidine-5-carboxylate], for which the EC50 in data set [1] (setting [3]) was determined as 388 nM. Moreover, the half-maximal cytotoxic concentration (CC50) at 6 days in data set [2] was determined as 27900 nM.
With `COC(=O)C1=C([C@H]2CC[C@@H](NS(C)(=O)=O)CC2)NC(c2ncc(F)cc2F)=NC1c1ccc(F)cc1Cl` (mixture of isomers) [Compound 399, (cis)-Methyl 4-(2-chloro-4-fluorophenyl)-2-(3,5-difluoropyridin-2-yl)-6-(4-(methylsulfonamido)cyclohexyl)-1,4-dihydropyrimidine-5-carboxylate], the EC50 in data set [1] (setting [3]) was 33 nM. In data set [2], half-maximal cytotoxicity (CC50 at 6 days) was put at 36800 nM.
Turning to `COC(=O)C1=C(C2CCN(S(C)(=O)=O)CC2)NC(c2nccs2)=NC1c1ccc(F)cc1Br` (single isomer, unassigned) [Compound 120A, Methyl 4-(2-bromo-4-fluorophenyl)-6-(1-(methylsulfonyl)-piperidin-4-yl)-2-(thiazol-2-yl)-1,4-dihydropyrimidine-5-carboxylate], the EC50 in data set [1] (HepG2.2.15 cells, 6 days of compound treatment, HBV DNA in culture medium by q-PCR, highest concentration 10 μM, read-out: EC50) turned out to be 350 nM. The compound also showed a 50% cytotoxic concentration (CC50) at 6 days in data set [2] of 31700 nM.
On to `COC(=O)C1=C([C@H]2CC[C@H](S(=O)(=O)N3CCCC3)CC2)NC(c2nccs2)=NC1c1ccc(F)c(F)c1Cl` (single isomer, unassigned) [Compound 169A, (trans)-Methyl 4-(2-chloro-3,4-difluorophenyl)-6-(4-(pyrrolidin-1-ylsulfonyl)cyclohexyl)-2-(thiazol-2-yl)-1,4-dihydropyrimidine-5-carboxylate], for which the EC50 in data set [1] (setting [3]) turned out to be 56 nM. In addition, the CC50 at 6 days in data set [2] was more than 100000 nM.
In the same order, the values of `COC(=O)C1=C(C2CCCN(S(C)(=O)=O)C2)NC(c2nccs2)=NC1c1cccc(F)c1Cl` (single isomer, unassigned) [Compound 98A, Methyl 4-(2-chloro-3-fluorophenyl)-6-(1-(methylsulfonyl)piperidin-3-yl)-2-(thiazol-2-yl)-1,4-dihydropyrimidine-5-carboxylate] are 270 nM and 11400 nM.
As for `CCOC(=O)C1=C(C2CCN(S(=O)(=O)CC3CC(C(=O)O)C3)CC2)NC(c2nccs2)=NC1c1ccc(F)c(F)c1Cl` (centres unmarked) [Compound 480B, 3-(((4-(6-(2-Chloro-3,4-difluorophenyl)-5-(ethoxycarbonyl)-2-(thiazol-2-yl)-3,6-dihydropyrimidin-4-yl)piperidin-1-yl)sulfonyl)methyl)cyclobutanecarboxylic Acid], the EC50 in data set [1] (setting [3]) was determined as 22 nM. Further, in data set [2], the midpoint of cytotoxicity, the CC50 at 6 days, lay at 9900 nM.
`COC(=O)C1=C(C2CCN(S(=O)(=O)c3cnn(C[C@@H](C)O)c3)CC2)NC(c2nccs2)=NC1c1ccc(F)cc1Cl` (stereo partly drawn) [Compound 360C, methyl 4-(2-chloro-4-fluorophenyl)-6-(1-((1-((R)-2-hydroxypropyl)-1H-pyrazol-4-yl)sulfonyl)piperidin-4-yl)-2-(thiazol-2-yl)-1,4-dihydropyrimidine-5-carboxylate] displayed an EC50 in data set [1] (Hepatitis B virus, HepG2.2.15, 144 h) of 17 nM. Moreover, in data set [2], the CC50 at 6 days is 17000 nM.
